Laboratory results from patent US11028075B2, “Therapeutic compounds and methods of use thereof” (GENENTECH, INC., priority 2018, dated 2021).
Counter-ions that a name gives are not always drawn.

Key:
hNav1.7 [1] = molecular target: T1, hNav1.7 (Homo sapiens (Human), UniProt Q15858); test: Tritiated compound binding to membranes from cells heterologously expressing hNav1.7 and the β1 subunit (Nav1.7 LBA); details: competitive binding vs [3H]compound, membranes with hNav1.7 and β1 subunit; read-out: Nav1.7 LBA EVO IC50
Outline: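 Membranes from cells expressing hNav1.7 with β1 were incubated at room temperature with a tritiated competitive Nav1.7 inhibitor plus test compound in 100 mM NaCl, 20 mM Tris pH 7.4, 0.01% BSA; nonspecific binding was set with 1 μM unlabeled compound. Incubation was 18 h with […] radioligand, or 3 h with […]. Bound ligand was filtered and counted, and IC50 came from a 4-parameter fit.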
Target sequence in this assay (Q15858 whole entry, looked up): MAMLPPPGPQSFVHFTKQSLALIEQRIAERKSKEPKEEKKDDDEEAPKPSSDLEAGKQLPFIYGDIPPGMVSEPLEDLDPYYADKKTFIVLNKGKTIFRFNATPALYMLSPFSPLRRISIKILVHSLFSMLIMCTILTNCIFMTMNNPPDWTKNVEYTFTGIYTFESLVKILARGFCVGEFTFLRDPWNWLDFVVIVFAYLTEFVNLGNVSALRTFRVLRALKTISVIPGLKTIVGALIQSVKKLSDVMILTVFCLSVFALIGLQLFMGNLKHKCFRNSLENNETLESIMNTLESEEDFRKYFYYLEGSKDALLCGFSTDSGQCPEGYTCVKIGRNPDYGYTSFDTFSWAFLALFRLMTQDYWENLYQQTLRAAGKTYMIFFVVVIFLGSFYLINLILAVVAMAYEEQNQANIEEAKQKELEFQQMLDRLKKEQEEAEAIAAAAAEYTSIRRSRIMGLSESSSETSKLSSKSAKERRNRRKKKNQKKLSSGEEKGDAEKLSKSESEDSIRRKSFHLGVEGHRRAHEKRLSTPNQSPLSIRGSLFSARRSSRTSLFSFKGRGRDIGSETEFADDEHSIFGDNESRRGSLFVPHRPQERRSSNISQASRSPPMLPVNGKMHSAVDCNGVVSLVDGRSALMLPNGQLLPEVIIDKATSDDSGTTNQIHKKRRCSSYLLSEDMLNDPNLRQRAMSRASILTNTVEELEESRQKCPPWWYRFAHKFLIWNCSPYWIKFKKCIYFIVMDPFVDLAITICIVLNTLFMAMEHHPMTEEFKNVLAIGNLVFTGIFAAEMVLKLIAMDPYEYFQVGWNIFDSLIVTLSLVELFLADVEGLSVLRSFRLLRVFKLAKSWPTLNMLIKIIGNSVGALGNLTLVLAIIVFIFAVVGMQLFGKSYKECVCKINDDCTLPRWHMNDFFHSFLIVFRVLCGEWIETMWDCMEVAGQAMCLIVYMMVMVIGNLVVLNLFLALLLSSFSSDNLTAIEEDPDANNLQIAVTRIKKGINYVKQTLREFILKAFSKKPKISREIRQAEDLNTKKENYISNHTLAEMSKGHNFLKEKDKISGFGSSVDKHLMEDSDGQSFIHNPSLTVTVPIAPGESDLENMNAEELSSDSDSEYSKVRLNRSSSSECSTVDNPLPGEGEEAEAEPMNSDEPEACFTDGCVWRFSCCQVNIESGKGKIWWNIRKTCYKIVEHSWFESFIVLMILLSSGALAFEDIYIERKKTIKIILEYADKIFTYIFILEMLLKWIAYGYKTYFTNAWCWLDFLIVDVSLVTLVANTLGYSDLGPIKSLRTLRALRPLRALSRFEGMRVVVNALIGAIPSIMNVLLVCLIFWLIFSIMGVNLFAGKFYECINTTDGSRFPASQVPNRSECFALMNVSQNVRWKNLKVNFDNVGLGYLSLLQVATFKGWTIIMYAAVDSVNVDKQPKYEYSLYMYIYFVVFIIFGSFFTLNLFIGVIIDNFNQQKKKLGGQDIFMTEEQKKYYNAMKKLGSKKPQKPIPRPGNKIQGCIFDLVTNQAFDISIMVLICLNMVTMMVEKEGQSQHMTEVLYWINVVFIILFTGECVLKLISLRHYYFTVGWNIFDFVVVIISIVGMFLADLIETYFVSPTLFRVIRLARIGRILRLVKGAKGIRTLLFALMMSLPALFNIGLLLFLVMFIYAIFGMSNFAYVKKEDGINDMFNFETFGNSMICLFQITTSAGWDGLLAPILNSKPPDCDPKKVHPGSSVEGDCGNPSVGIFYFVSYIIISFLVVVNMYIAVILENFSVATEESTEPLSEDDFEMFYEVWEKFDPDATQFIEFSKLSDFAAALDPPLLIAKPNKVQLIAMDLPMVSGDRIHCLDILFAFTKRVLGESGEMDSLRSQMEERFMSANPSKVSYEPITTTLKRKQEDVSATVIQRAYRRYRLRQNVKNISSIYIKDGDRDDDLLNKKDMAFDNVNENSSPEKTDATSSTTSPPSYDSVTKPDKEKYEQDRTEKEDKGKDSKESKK
Target sequence in this assay (Q07699 whole entry partner, looked up): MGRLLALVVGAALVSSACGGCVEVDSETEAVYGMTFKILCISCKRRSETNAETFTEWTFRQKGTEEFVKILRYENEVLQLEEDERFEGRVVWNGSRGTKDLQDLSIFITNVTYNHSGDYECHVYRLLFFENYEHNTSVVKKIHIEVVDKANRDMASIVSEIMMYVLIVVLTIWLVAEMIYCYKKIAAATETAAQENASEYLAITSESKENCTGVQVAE

hNav1.7 [2] = molecular target: T1, hNav1.7; test: Electrophysiological assay (EP), voltage clamp on Syncropatch 384PE, CHO cells stably expressing Nav1.7; format: cell-based; details: holding potential −50 mV, 7.5 min compound incubation, read-out: EP_SP hNav1.7 EVO IC50
Outline: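 Whole-cell automated patch clamp was run on CHO cells stably expressing human Nav1.7 cDNA, with internal solution CsCl/EGTA pH 7.2, external solution 80 mM NaCl pH 7.4, and 0.1% Pluronic F-127. From a −50 mV holding potential: −10 mV for 10 ms, −150 mV for 20 ms, then −10 mV for 10 ms, where current was measured. Inhibition was taken after 7.5 min compound incubation, with TTX added for full block.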
Target sequence in this assay (Q15858 other isoform, or with tags, fused parts or gaps): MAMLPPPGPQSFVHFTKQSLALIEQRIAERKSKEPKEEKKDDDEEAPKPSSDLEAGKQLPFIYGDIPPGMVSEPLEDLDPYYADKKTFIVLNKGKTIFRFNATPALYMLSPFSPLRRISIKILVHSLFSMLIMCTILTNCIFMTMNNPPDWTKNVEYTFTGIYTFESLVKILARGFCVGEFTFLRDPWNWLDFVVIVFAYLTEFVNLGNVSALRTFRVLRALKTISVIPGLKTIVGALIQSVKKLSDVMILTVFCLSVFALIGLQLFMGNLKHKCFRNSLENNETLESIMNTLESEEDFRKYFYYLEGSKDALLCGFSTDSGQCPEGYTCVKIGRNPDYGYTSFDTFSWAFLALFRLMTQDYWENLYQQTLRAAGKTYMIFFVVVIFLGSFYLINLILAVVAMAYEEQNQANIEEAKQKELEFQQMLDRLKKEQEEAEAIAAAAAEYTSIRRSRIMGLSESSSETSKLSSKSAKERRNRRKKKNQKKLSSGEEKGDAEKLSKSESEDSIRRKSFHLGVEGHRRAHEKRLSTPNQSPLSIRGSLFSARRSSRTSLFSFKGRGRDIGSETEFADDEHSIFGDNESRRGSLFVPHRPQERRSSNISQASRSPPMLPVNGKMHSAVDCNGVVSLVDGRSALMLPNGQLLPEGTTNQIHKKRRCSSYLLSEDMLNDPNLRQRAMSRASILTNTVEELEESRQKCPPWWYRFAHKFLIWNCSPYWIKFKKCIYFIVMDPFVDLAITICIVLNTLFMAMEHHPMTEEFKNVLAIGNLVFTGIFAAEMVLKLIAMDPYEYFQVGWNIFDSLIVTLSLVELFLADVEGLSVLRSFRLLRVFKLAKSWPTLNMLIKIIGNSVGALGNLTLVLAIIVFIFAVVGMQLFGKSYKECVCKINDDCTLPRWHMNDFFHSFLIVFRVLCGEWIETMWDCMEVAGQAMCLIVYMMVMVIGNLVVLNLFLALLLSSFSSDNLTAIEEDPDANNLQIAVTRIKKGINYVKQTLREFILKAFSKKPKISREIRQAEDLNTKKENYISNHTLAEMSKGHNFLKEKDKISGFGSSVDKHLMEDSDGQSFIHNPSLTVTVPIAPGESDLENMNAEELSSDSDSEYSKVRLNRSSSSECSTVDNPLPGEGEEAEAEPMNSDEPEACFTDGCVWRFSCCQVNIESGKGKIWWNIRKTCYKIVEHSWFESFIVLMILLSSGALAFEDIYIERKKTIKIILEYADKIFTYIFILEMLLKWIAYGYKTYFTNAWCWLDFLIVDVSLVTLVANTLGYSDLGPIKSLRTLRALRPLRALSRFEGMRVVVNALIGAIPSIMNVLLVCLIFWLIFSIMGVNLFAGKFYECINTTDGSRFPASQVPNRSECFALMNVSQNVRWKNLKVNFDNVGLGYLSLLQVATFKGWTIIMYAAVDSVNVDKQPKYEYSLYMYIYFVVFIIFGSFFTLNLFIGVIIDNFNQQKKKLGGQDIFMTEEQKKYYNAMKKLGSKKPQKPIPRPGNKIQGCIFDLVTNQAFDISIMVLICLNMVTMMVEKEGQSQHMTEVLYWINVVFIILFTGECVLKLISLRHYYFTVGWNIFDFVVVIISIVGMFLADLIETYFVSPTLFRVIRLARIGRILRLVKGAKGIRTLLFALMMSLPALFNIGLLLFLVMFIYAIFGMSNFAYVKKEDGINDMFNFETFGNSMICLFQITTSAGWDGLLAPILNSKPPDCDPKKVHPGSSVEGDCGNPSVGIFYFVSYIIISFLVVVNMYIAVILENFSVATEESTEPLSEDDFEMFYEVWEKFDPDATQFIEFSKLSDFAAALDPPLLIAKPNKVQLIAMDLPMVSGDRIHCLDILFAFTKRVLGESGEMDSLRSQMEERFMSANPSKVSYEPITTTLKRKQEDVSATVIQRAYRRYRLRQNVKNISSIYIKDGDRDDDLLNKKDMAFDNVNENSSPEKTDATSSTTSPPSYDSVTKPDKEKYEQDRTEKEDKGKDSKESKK

Structure (SMILES)	IC50 (hNav1.7 [1])	IC50 (hNav1.7 [2])
O=S(=O)(Nc1ccncn1)c1cc(F)c(N[C@H]2CC[C@H](c3cc(F)cc(C(F)(F)F)c3)C[C@@H]2N2CCCC2)cc1F [Example 85, 2,5-difluoro-4-(((1S,2S,4S)-4-(3-fluoro-5-(trifluoromethyl)phenyl)-2-(pyrrolidin-1-yl)cyclohexyl)-amino)-N-(pyrimidin-4-yl)benzenesulfonamide formate]	2.24 nM	0.494 nM
CN(C)[C@H]1C[C@@H](c2cc(C(F)(F)F)ccc2Cl)CC[C@@H]1Oc1cc(F)c(S(=O)(=O)Nc2ccncn2)cc1Cl [Example 86, 5-chloro-4-(((1S,2S,4S)-4-(2-chloro-5-(trifluoromethyl)phenyl)-2-(dimethylamino)-cyclohexyl)oxy)-2-fluoro-N-(pyrimidin-4-yl)benzenesulfonamide]	3.28 nM	0.819 nM
CN1CC(N[C@H]2C[C@@H](c3cccc(C(F)(F)F)c3)CC[C@@H]2Oc2cc(F)c(S(=O)(=O)Nc3ccncn3)cc2Cl)C1 [Example 87, 5-chloro-2-fluoro-4-(((1S,2S,4S)-2-((1-methylazetidin-3-yl)amino)-4-(3-(trifluoromethyl)phenyl)-cyclohexyl)oxy)-N-(pyrimidin-4-yl)benzenesulfonamide]	7.94 nM	1.18 nM
CN(C)[C@H]1C[C@@H](c2cccc(C(F)(F)F)c2)CC[C@@H]1Nc1c(F)cc(S(=O)(=O)Nc2ccncn2)cc1F [Example 88, 4-(((1S,2S,4S)-2-(Dimethylamino)-4-(3-(trifluoromethyl)phenyl)cyclohexyl)amino)-3,5-difluoro-N-(pyrimidin-4-yl)benzenesulfonamide]	170 nM	17 nM
CN(C)[C@H]1C[C@@H](c2cccc(C(C)(F)F)c2)CC[C@@H]1Oc1cc(F)c(S(=O)(=O)Nc2ccncn2)cc1Cl [Example 91, 5-chloro-4-(((1S,2S,4S)-4-(3-(1,1-difluoroethyl)phenyl)-2-(dimethylamino)cyclohexyl)oxy)-2-fluoro-N-(pyrimidin-4-yl)benzenesulfonamide]	6.13 nM	1.2 nM
CN(C)[C@H]1C[C@@H](c2cccc(C(F)(F)F)c2Cl)CC[C@@H]1Oc1cc(F)c(S(=O)(=O)Nc2ccncn2)cc1Cl [Example 92, 5-chloro-4-(((1S,2S,4S)-4-(2-chloro-3-(trifluoromethyl)phenyl)-2-(dimethylamino)-cyclohexyl)oxy)-2-fluoro-N-(pyrimidin-4-yl)benzenesulfonamide]	55.7 nM	3.99 nM
